Source: ChEMBL document CHEMBL4680133, “Novel nitroimidazole derivatives evaluated for their trypanocidal, cytotoxic, and genotoxic activities” (Eur J Med Chem, 2020)

Legend:
[1] = Genotoxicity in human HepG2 assessed as survival at 100 ug/ml measured after 24 hrs by micronucleus test (reference value: 100%); type: toxicity, cell-based; details: HepG2 cells, at 100 µg/mL, read-out: Survival
HepG2 [2] = test: Genotoxicity in human HepG2 assessed as mitotic index at 100 ug/ml measured after 24 hrs by micronucleus test (reference value: 61 to 108); type: toxicity, cell-based; details: hepg2, 24 h, dose 100 µg/ml
HepG2 [3] = test: Genotoxicity in human HepG2 assessed as number of micronucleated cells at 100 ug/ml measured after 24 hrs by micronucleus test (reference value: 14 to 18); type: toxicity, cell-based; details: hepg2, 24 h, dose 100 µg/ml
Trypanosoma cruzi [4] = test: Antitrypanosomal activity against bloodstream form of Trypanosoma cruzi Y trypomastigotes infected in African green monkey Vero cells assessed as increase in parasite lysis measured after 24 hrs by Neubauer chamber method; type: functional, organism-based
[5] = Selectivity index, ratio of GI50 for mouse RAW264.7 cells assessed as reduction in cell viability measured after 24 hrs by WST1 assay to IC50 for antitrypanosomal activity against Trypanosoma cruzi Y axenic amastigotes infected in African green monkey Vero cells; type: toxicity; details: read-out: Selectivity Index
[6] = Cytotoxicity against mouse RAW264.7 cells assessed as reduction in cell viability measured after 24 hrs by WST1 assay; type: cell-based
[7] = Cytotoxicity against human HepG2 cells assessed as reduction in cell viability measured after 24 hrs by WST1 assay; type: cell-based
Trypanosoma cruzi [8] = test: Antitrypanosomal activity against Trypanosoma cruzi Y axenic amastigotes infected in African green monkey Vero cells after 24 hrs by MTT assay; type: functional, organism-based
[9] = Selectivity index, ratio of GI50 for human HepG2 cells assessed as reduction in cell viability measured after 24 hrs by WST1 assay to IC50 for antitrypanosomal activity against bloodstream form of Trypanosoma cruzi Y trypomastigotes infected in African green monkey Vero cells; type: toxicity; details: read-out: Selectivity Index
[10] = Selectivity index, ratio of GI50 for human HepG2 cells assessed as reduction in cell viability measured after 24 hrs by WST1 assay to IC50 for antitrypanosomal activity against Trypanosoma cruzi Y axenic amastigotes infected in African green monkey Vero cells; type: toxicity; details: read-out: Selectivity Index
[11] = Selectivity index, ratio of GI50 for mouse RAW264.7 cells assessed as reduction in cell viability measured after 24 hrs by WST1 assay to IC50 for antitrypanosomal activity against bloodstream form of Trypanosoma cruzi Y trypomastigotes infected in African green monkey Vero cells; type: toxicity; details: read-out: Selectivity Index
[12] = Mutagenicity in Salmonella typhimurium TA97 assessed as revertant/ug measured after 20 mins in absence of S9 fraction by microsome assay; type: toxicity; details: salmonella enterica subsp. enterica serovar typhimurium, microsomes
[13] = Mutagenicity in Salmonella typhimurium TA100 assessed as revertant/ug measured after 20 mins in absence of S9 fraction by microsome assay; type: toxicity; details: salmonella enterica subsp. enterica serovar typhimurium, microsomes
[14] = Mutagenicity in Salmonella typhimurium TA100 assessed as revertant/ug measured after 20 mins in presence of S9 fraction by microsome assay; type: toxicity, subcellular; details: salmonella enterica subsp. enterica serovar typhimurium, s9, 20 min
[15] = Mutagenicity in Salmonella typhimurium TA97 assessed as revertant/ug measured after 20 mins in presence of S9 fraction by microsome assay; type: toxicity, subcellular; details: salmonella enterica subsp. enterica serovar typhimurium, s9, 20 min

For `c1ccc2c(c1)cc1ccc3cccc4ccc2c1c34` [BENZO[DEF]CHRYSENE], the viability at 24 h, 100 ug/ml [1] was 99%, the Activity_index (HepG2 [2]) was 57 and the Activity (HepG2 [3]) was 31.

With `CCCCCc1cn(-c2c([N+](=O)[O-])ncn2C)nn1` the IC50 (Trypanosoma cruzi [4]) was 54.3 µM.

Work on `O=C(Cn1ccnc1[N+](=O)[O-])NCc1ccccc1` [BENZNIDAZOLE] yielded a selectivity ratio at 24 h [5] greater than 57, an IC50 (Trypanosoma cruzi [4]) of 8.8 µM and a GI50 at 24 h [6] greater than 500 µM. For the same compound, the GI50 at 24 h [7] was greater than 500 µM, the IC50 (Trypanosoma cruzi [8]) was 8.7 µM and the selectivity ratio at 24 h [9] was greater than 56. The selectivity ratio at 24 h [10] was greater than 57 and the selectivity ratio at 24 h [11] was greater than 56.

Compound `Cn1cnc([N+](=O)[O-])c1-n1ccnc1` has an IC50 (Trypanosoma cruzi [4]) greater than 2000 µM.

Work on `Cn1cnc([N+](=O)[O-])c1-n1cccn1` yielded an Activity [12] of 11.5 revertants/µg, an Activity [13] of 65.5 revertants/µg and an Activity [14] of 35.5 revertants/µg. The Activity [15] was “Non-Toxic”.
